The record followed here is publication PMC10671849, “Synthesis and Evaluation of Marine-Inspired Compounds Result in Hybrids with Antitrypanosomal and Antileishmanial Activities” (Marine Drugs, 2023).

≈ marks a conversion by molar mass, not a printed value. Like-named read-outs stand apart in the source and are kept apart here. A value given as a limit tells only on which side of the number the result lay.

The term IC50 denotes the midpoint of a concentration-inhibition curve. The term MIC denotes the smallest concentration in the dilution series that meets the test's criterion for growth inhibition.

Holding throughout (format): cell-based
Assay [1] concerns L. infantum promastigotes. In words: Anti-Leishmania activity, resazurin-based assay. The note with it: read-out: Anti-Parasitic Activity IC50 (µM) 95% CI, L. infantum Promastigotes. As for the experimental part:
Promastigotes from the L. infantum strain (MHOM/MA/67/ITMAP-263) were grown in 5-mL T25 flasks in Schneider’s insect medium supplemented with 10% heat-inactivated fetal bovine serum (FBS), 200 U/mL penicillin/streptomycin, 6 µg/mL Phenol Red, and 5 mM HEPES. The cultures were maintained in an incubator at 27 °C and diluted to 2 × 10^5/mL every 5 days. For the assays, the parasites used were equivalent to late/log with 2 or 3 days of culture.
The compounds’ efficacy against L. infantum promastigotes was evaluated using a resazurin-based assay. Parasites were added to 100 µL of serial dilutions of compounds in supplemented complete medium at a cell density of 5 × 10^5/mL. As a quality control, a dose–response curve to the antileishmanial drug miltefosine was included in all the assays. The final volume of the assay was 200 µL/well. Each condition was carried out in duplicate. Following 72 h of incubation at the specific conditions for parasites, 20 µL of a 0.5 mM resazurin solution was added, and the plates were incubated for a further 4 h under the same conditions. Fluorescence was measured at 544 nm and 590 nm excitation and emission wavelengths, respectively, using a Synergy 2 Multi-Mode Reader (Biotek, Winooski, VT, USA). Results are shown as % of parasite growth inhibition compared to control (untreated parasites) and represent the average of at least three independent experiments. The effect was evaluated by the determination of the IC50 value (concentration required to inhibit growth in 50%) and was calculated by non-linear regression curves using GraphPad Prism software, version 8.1.1 for Windows (GraphPad Software, San Diego, CA, USA).
A general note: The colour change of resazurin is a common sign of viable cells or microbes.

For assay [2], the system named is Aspergillus fumigatus ATCC 240305. In words: Antifungal broth microdilution (CLSI M38-A2), MIC/MLC. The note with it: for MIC: Aspergillus fumigatus, ATCC240305, broth microdilution, 16 to 512 µg/mL, 48 h at 36 °C. As for the experimental part: (§1) All tested compounds (9a–9d, 10a–10c, 13, 14, and eugenol (1)) were prepared in DMSO (Sigma-Aldrich, St. Louis, MO, USA) at a concentration of 10 mg/mL. The reference drugs used (voriconazole (Sigma-Aldrich, St. Louis, MO, USA) for fungi and quality control; gentamicin (Sigma-Aldrich, St. Louis, MO, USA) for bacterial and quality control) were prepared at 6.4 mg/mL. The stock solutions of the compounds were stored at –20 °C until immediately before the assays and then were diluted in fresh culture medium, RPMI-1640 medium (Biochrom AG, Berlin, Germany) buffered with 3-(N-morpholino)propanesulfonic acid (MOPS—Sigma-Aldrich, St. Louis, MO, USA) for fungi and cation-adjusted Mueller–Hinton broth (MHBII—Becton Dickinson, France) for bacteria, henceforth referred to as RPMI and MHB, respectively.
(§2) Fungal strains, including reference strains and clinical isolates, were used for the study of the antifungal activity: a yeast reference strain from American Type Culture Collection (ATCC), Candida albicans ATCC 10231; filamentous fungi reference strain Aspergillus fumigatus ATCC 240305; and a clinical isolate of dermatophytes Trichophyton rubrum FF5. Candida krusei ATCC 6258 was used as a quality control. All fungal strains were stored in Sabouraud dextrose broth (SDB—Bio-Mèrieux, Marcy L’Etoile, France) with glycerol (20%) at −80 °C and were subcultured in Sabouraud dextrose agar (SDA—Bio-Mèrieux, Marcy L’Etoile, France) for 24–72 h (yeasts and A. fumigatus) or 5–7 days (T. rubrum) before each assay to obtain optimal growth and purity conditions. Two bacteria strains were used, one Gram positive and one Gram negative: Staphylococcus aureus ATCC 25923 and Escherichia coli ATCC 25922, respectively. The bacterial strains were stored in trypticase soy broth (TSB—Biolife, Milan, Italy) with glycerol (10%) at −80 °C and subcultured in Mueller–Hinton agar (MHA—Bio-Mèrieux, Marcy L’Etoile, France) for 24 h before each assay.
(§3) For the purpose of quantitatively measuring the antifungal activity in vitro, a broth microdilution method was used to determine the MICs using the CLSI reference protocols M27-A3 [27] for yeasts and M38-A2 [28] for filamentous fungi. In short, two-fold serial dilutions of each stock solution were prepared using RPMI medium (pH 7) to obtain a range of test concentrations from 16 to 512 μg/mL. The yeasts or spore suspensions were prepared from 24 to 72-h cultures (yeasts and Aspergillus) or from 5–7 days of cultures (dermatophyte) in saline solution (with a drop of Tween 20 for the filamentous fungi). The transmittance of the cell density of yeasts was adjusted to 0.5 McFarland standard, and for filamentous fungi, the spores were counted using a Neubauer camera. Dilutions were performed using RPMI to obtain cell final concentrations in the plate of 0.5–2.5 × 10^3 colony forming units (CFU)/mL for yeasts, 0.4–5 × 10^4 CFU/mL for Aspergillus, and 1–3 × 10^3 CFU/mL for dermatophytes. Plates with the prepared serial dilutions of the tested compounds were inoculated with the same volume of the fungal suspension, and sterility (wells with only culture medium), growth (wells with cell suspensions in culture medium), and DMSO controls (wells with cell suspensions in culture medium containing 1% DMSO) were included in each assay. […] For the tested compounds, MIC values were considered the minimum concentration that inhibited the yeast growth by 100% compared to the growth control. The reference drug, voriconazole, was tested against C. krusei ATCC 6258 as a quality control, and the results were within the limits of CLSI reference documents.
(§4) After MIC readings, 10 μL of suspension were collected from wells corresponding to the MIC and the highest concentration following the MIC and were deposited in SDA plates. The plates were incubated following the conditions previously mentioned for the MIC evaluation, and the MLC was determined as the lowest concentration at which no fungal growth is observed.
For orientation: Dilution methods test growth across graded concentrations, often in twofold steps.

Assay [3] relates to Trichophyton rubrum FF5. Described as above. The conditions noted are these: for MIC: Trichophyton rubrum, FF5, broth microdilution, read-out: MIC T. rubrum; for MIC / MIC T. rubrum: 16 to 512 µg/mL, 5–7 days at 26 °C; for MIC T. rubrum: broth microdilution; for MLC T. rubrum: minimum lethal concentration, subculture on SDA after MIC reading. On the procedure:
as §1, §2, §3, §4

Setting [4] is: 72 h incubation, resazurin, highest concentration tested 40 µM, 95% CI in parentheses.

On to `C=CCc1cc(Cn2cc(C(=O)Nc3ccccc3C(N)=O)nn2)c(O)c(OC)c1` [9a, 1-(5-allyl-2-hydroxy-3-methoxybenzyl)-N-(2-carbamoylphenyl)-1H-1,2,3-triazole-4-carboxamide], for which the IC50 in assay [1] (setting [4]) is more than 40 µM. Moreover, the MIC in assay [2] is more than 512 µg/mL. Also, in assay [3], the MIC was determined as 512 µg/mL (≈ 1260 µM), the “MIC T. rubrum” value is given as 256 to 512 µg/mL and the “MLC T. rubrum” value is given as more than 512 µg/mL.

Consider `C=CCc1cc(Cn2cc(C(=O)Nc3ccc(OC)cc3C(N)=O)nn2)c(O)c(OC)c1` [9b, 1-(5-allyl-2-hydroxy-3-methoxybenzyl)-N-(2-carbamoyl-4-methoxyphenyl)-1H-1,2,3-triazole-4-carboxamide], for which the IC50 in assay [1] (setting [4]) is more than 40 µM. Further, the minimum inhibitory concentration (MIC) in assay [2] and in assay [3] was more than 512 µg/mL throughout.

In the case of `C=CCc1cc(Cn2cc(C(=O)Nc3ccc(F)cc3C(N)=O)nn2)c(O)c(OC)c1` [9c, 1-(5-allyl-2-hydroxy-3-methoxybenzyl)-N-(2-carbamoyl-4-fluorophenyl)-1H-1,2,3-triazole-4-carboxamide], the IC50 in assay [1] (setting [4]) came to 7.54 µM. The MIC in assay [2] and in assay [3] was more than 512 µg/mL each time.

As to `C=CCc1cc(Cn2cc(C(=O)Nc3ccc(Cl)cc3C(N)=O)nn2)c(O)c(OC)c1` [9d, 1-(5-allyl-2-hydroxy-3-methoxybenzyl)-N-(2-carbamoyl-4-chlorophenyl)-1H-1,2,3-triazole-4-carboxamide], the IC50 in assay [1] (setting [4]) is more than 40 µM. Further, the MIC in assay [2] is more than 512 µg/mL. Besides, in assay [3], the minimum inhibitory concentration (MIC) came out at 512 µg/mL (≈ 1160 µM), the “MIC T. rubrum” value is 256 to 512 µg/mL and the “MLC T. rubrum” value is reported as more than 512 µg/mL.

As to `C=CCc1cc(Cn2cc(-c3nc4ccccc4c(=O)[nH]3)nn2)c(O)c(OC)c1` [10a, 2-(1-(5-allyl-2-hydroxy-3-methoxybenzyl)-1H-1,2,3-triazol-4-yl)quinazolin-4(3H)-one], the 50% inhibitory concentration (IC50) in assay [1] (setting [4]) was more than 40 µM. Also, the MIC in assay [2] was more than 512 µg/mL. In assay [3], the minimum inhibitory concentration (MIC) turned out to be 512 µg/mL (≈ 1310 µM), the “MIC T. rubrum” value was 256 to 512 µg/mL and the “MLC T. rubrum” value was more than 512 µg/mL.

In the case of `C=CCc1cc(Cn2cc(-c3nc4ccc(OC)cc4c(=O)[nH]3)nn2)c(O)c(OC)c1` [10b, 2-(1-(5-allyl-2-hydroxy-3-methoxybenzyl)-1H-1,2,3-triazol-4-yl)-6-methoxyquinazolin-4(3H)-one], the IC50 in assay [1] (setting [4]) is more than 40 µM. The MIC in assay [2] and in assay [3] was more than 512 µg/mL each time.

For `C=CCc1cc(Cn2cc(-c3nc4ccc(F)cc4c(=O)[nH]3)nn2)c(O)c(OC)c1` [10c, 2-(1-(5-allyl-2-hydroxy-3-methoxybenzyl)-1H-1,2,3-triazol-4-yl)-6-fluoroquinazolin-4(3H)-one], in assay [1] (setting [4]), the IC50 is more than 40 µM. In assay [2], this compound displayed a minimal inhibitory concentration (MIC) of more than 512 µg/mL. For the same compound, in assay [3], the MIC was determined as 512 µg/mL (≈ 1260 µM), the “MIC T. rubrum” value lay in the range of 256 to 512 µg/mL and the “MLC T. rubrum” value was more than 512 µg/mL.

As for `C=CCc1ccc(O)c(OC)c1` [Eugenol, eugenol, reference compound], the IC50 in assay [1] (72 h) was more than 40 µM. For the same compound, the minimum inhibitory concentration (MIC) came to 512 µg/mL (≈ 3120 µM) in assay [2] and 256 µg/mL (≈ 1560 µM) in assay [3]. Moreover, the “MLC A. fumigatus” value in assay [2] (minimum lethal concentration, subculture on SDA after MIC reading) was more than 512 µg/mL.

Regarding `C=CCc1ccc(OCc2cn(CC(=O)Nc3ccccc3C(=O)O)nn2)c(OC)c1` [compound 13, 2-(2-(4-((4-allyl-2-methoxyphenoxy)methyl)-1H-1,2,3-triazol-1-yl)acetamido) benzoic acid], in assay [1] (setting [4]), the IC50 was more than 40 µM. For the same compound, the minimum inhibitory concentration (MIC) in assay [2] and in assay [3] was more than 512 µg/mL in each case.

On to `C=CCc1cc(Cn2cc(-c3nc4ccccc4c(=O)o3)nn2)c(O)c(OC)c1` [compound 14, 2-(1-(5-allyl-2-hydroxy-3-methoxybenzyl)-1H-1,2,3-triazol-4-yl)-4H-benzo[d][1,3]oxazin-4-one], for which the IC50 in assay [1] (setting [4]) was more than 40 µM. In assay [2], this compound showed an MIC of more than 512 µg/mL. Also, in assay [3], the minimal inhibitory concentration (MIC) fell in the range of 256 to 512 µg/mL (≈ 656 to 1310 µM), the “MIC T. rubrum” value is reported as 256 to 512 µg/mL and the “MLC T. rubrum” value is recorded as more than 512 µg/mL.
